Measurements taken from ChEMBL document CHEMBL3120164, “1,2,3,4-Tetrahydrobenzo[h][1,6]naphthyridines as a new family of potent peripheral-to-midgorge-site inhibitors of acetylcholinesterase: synthesis, pharmacological evaluation and mechanistic studies” (Eur J Med Chem, 2014).
Activity calls are given as the source filed them. No cut-off for these calls is given here.

Target: Amyloid-beta precursor protein (Homo sapiens) (UniProt P05067)
Assay: Inhibition of amyloid beta (1 to 42) aggregation (unknown origin) at 10 uM relative to control
Details: not given

Sequence of Amyloid-beta precursor protein (Homo sapiens) (P05067 whole entry): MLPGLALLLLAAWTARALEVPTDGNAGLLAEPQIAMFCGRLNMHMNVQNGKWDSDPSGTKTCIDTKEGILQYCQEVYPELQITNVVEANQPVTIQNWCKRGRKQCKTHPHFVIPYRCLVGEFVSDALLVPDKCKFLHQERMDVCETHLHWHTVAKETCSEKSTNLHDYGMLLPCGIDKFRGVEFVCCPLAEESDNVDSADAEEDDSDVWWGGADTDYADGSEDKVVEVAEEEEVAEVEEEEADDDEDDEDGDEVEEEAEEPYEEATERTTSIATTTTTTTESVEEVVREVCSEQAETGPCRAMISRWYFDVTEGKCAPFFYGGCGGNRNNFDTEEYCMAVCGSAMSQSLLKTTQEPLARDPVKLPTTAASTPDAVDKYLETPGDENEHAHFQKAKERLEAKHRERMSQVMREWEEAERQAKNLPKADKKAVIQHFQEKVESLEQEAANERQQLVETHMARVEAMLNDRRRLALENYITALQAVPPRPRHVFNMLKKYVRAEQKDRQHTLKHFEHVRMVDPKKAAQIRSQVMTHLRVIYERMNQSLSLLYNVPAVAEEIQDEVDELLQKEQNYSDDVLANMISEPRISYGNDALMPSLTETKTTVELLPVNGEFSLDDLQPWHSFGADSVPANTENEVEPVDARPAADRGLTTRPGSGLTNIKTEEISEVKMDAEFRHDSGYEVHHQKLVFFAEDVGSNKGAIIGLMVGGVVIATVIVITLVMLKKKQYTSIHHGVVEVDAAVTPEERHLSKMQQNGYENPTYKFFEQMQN

SMILES	inhibition
CCOC(=O)c1ccc2nc(-c3ccc(Cl)cc3)c3c(c2c1)N(Cc1ccccc1)C(=O)CC3	< 16%
CCNCc1ccc2nc(-c3cccnc3)c3c(c2c1)NCCC3	< 16%
CCNCc1ccc2nc(-c3ccc(Cl)cc3)c3c(c2c1)NCCC3	< 16%
CCNC(=O)c1ccc2nc(-c3ccc(Cl)cc3)c3c(c2c1)N(Cc1ccccc1)CCC3	< 16%
CCOC(=O)c1ccc2nc(-c3ccc(Cl)cc3)c3c(c2c1)N(Cc1ccccc1)CCC3	< 16%
CCOC(=O)c1ccc2nc(-c3ccc(Cl)cc3)c3c(c2c1)NCCC3	< 16%
CCOC(=O)c1ccc2nc(-c3cccnc3)c3c(c2c1)NCCC3	< 16%
CCNC(=O)c1ccc2nc(-c3ccc(Cl)cc3)c3c(c2c1)NCCC3	< 16%

Target: T1, Acetylcholinesterase (Homo sapiens, UniProt P22303)
Assay: Mixed-type inhibition of human recombinant AChE using acetylthiocholine iodide as substrate assessed as enzyme-inhibitor complex by Lineweaver-Burk plot analysis
Details: not given

T1 sequence (P22303 whole entry): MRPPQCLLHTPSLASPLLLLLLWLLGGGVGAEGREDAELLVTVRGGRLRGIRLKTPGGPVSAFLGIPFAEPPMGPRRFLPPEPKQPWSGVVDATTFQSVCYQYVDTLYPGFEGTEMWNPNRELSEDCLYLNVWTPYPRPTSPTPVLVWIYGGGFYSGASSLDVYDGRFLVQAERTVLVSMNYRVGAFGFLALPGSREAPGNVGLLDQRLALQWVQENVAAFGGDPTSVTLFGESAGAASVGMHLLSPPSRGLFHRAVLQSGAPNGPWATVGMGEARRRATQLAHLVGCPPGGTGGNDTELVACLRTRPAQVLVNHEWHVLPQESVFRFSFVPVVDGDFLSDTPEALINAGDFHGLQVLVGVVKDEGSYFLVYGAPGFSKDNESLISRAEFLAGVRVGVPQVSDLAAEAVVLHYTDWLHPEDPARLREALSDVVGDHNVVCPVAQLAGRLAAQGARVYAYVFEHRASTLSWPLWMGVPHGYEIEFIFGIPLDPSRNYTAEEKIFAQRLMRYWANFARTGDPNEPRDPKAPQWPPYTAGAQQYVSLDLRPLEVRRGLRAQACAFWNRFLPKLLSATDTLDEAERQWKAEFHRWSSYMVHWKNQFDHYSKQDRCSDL

SMILES	Ki
CCNC(=O)c1ccc2nc(-c3ccc(Cl)cc3)c3c(c2c1)N(Cc1ccccc1)CCC3	785 nM
CCNC(=O)c1ccc2nc(-c3ccc(Cl)cc3)c3c(c2c1)NCCC3	65 nM

Target: T2, Acetylcholinesterase (Electrophorus electricus, UniProt O42275)
Assay: (§1) Displacement of propidium from electric eel AChE peripheral anionic site assessed as decrease in fluorescence intensity by spectrofluorometric analysis
Details: not given

T2 sequence (O42275 whole entry): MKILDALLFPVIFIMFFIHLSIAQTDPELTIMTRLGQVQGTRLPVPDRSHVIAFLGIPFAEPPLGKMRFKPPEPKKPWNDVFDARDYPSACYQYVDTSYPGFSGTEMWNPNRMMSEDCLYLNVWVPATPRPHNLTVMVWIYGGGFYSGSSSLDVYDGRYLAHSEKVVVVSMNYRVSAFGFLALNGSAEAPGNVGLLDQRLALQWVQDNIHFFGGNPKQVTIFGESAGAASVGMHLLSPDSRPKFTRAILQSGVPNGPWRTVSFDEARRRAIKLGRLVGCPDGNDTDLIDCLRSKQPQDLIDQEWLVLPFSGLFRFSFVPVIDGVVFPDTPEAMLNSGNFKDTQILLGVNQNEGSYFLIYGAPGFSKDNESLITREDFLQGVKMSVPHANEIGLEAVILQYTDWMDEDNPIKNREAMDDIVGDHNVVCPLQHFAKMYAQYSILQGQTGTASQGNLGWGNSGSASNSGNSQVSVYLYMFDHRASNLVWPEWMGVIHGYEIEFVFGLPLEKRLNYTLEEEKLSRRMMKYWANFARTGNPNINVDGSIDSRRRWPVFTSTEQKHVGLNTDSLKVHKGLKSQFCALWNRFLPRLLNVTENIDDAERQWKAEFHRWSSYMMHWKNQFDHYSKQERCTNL

SMILES	Kd
CCNCc1ccc2nc(-c3ccc(Cl)cc3)c3c(c2c1)NCCC3	2180 nM
CCNC(=O)c1ccc2nc(-c3ccc(Cl)cc3)c3c(c2c1)NCCC3	1760 nM

Target: Acetylcholinesterase (Electrophorus electricus) (UniProt O42275)
Assay: as §1
Details: not given

Sequence of Acetylcholinesterase (Electrophorus electricus) (O42275 24-633 limits assumed): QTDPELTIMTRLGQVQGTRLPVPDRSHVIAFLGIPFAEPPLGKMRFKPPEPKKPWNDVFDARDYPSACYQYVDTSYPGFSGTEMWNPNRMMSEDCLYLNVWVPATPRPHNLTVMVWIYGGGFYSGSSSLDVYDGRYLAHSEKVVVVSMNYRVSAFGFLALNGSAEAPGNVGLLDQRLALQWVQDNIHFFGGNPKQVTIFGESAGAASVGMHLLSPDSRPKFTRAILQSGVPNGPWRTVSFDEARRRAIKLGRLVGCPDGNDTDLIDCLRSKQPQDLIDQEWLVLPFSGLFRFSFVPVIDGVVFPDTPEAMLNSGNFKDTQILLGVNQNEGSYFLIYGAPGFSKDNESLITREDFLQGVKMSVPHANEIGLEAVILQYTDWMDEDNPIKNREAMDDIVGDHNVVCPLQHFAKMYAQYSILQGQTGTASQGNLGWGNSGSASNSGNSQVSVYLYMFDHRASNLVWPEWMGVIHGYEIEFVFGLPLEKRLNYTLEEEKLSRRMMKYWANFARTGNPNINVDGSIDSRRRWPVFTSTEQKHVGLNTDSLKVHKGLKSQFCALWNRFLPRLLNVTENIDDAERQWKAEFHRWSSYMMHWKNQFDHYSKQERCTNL

SMILES	inhibition
CCNCc1ccc2nc(-c3ccc(Cl)cc3)c3c(c2c1)NCCC3	Dose-dependent effect
CCNC(=O)c1ccc2nc(-c3ccc(Cl)cc3)c3c(c2c1)NCCC3	Dose-dependent effect

Target: T2, Acetylcholinesterase
Assay: not given
Details: not given

SMILES	IC50
CCOC(=O)c1ccc2nc(-c3ccc(Cl)cc3)c3c(c2c1)N(Cc1ccccc1)C(=O)CC3	5210 nM
CCNCc1ccc2nc(-c3cccnc3)c3c(c2c1)NCCC3	2150 nM
CCNCc1ccc2nc(-c3ccc(Cl)cc3)c3c(c2c1)NCCC3	532 nM
CCNC(=O)c1ccc2nc(-c3ccc(Cl)cc3)c3c(c2c1)N(Cc1ccccc1)CCC3	5480 nM
CCOC(=O)c1ccc2nc(-c3ccc(Cl)cc3)c3c(c2c1)N(Cc1ccccc1)CCC3	6330 nM
CCOC(=O)c1ccc2nc(-c3ccc(Cl)cc3)c3c(c2c1)NCCC3	281 nM
CCOC(=O)c1ccc2nc(-c3cccnc3)c3c(c2c1)NCCC3	148 nM
CCNC(=O)c1ccc2nc(-c3ccc(Cl)cc3)c3c(c2c1)NCCC3	46 nM

Target: Acetylcholinesterase (Electrophorus electricus) (UniProt O42275)
Assay: Binding affinity to electric eel AChE peripheral anionic site assessed as concentration required for decreasing initial fluorescence intensity of AChE-propidium complex by spectrofluorometric analysis
Details: not given

SMILES	Activity
CCNCc1ccc2nc(-c3ccc(Cl)cc3)c3c(c2c1)NCCC3	23 µM
CCNC(=O)c1ccc2nc(-c3ccc(Cl)cc3)c3c(c2c1)NCCC3	13 µM

Target: Acetylcholinesterase (Electrophorus electricus) (UniProt O42275)
Assay: Displacement of propidium from electric eel AChE peripheral anionic site assessed as decrease in fluorescence intensity at 1/1 propidium to compound ratio by spectrofluorometric analysis relative to control
Details: concentration not given here

SMILES	inhibition
CCNC(=O)c1ccc2nc(-c3ccc(Cl)cc3)c3c(c2c1)N(Cc1ccccc1)CCC3	5%

Target: T3, Cholinesterase (Homo sapiens, UniProt P06276)
Assay: Inhibition of human serum BChE using butyrylthiocholine iodide as substrate at 30 uM preincubated for 20 mins followed by substrate addition measured after 5 mins by Ellman's method relative to control
Details: not given

T3 sequence (P06276 whole entry): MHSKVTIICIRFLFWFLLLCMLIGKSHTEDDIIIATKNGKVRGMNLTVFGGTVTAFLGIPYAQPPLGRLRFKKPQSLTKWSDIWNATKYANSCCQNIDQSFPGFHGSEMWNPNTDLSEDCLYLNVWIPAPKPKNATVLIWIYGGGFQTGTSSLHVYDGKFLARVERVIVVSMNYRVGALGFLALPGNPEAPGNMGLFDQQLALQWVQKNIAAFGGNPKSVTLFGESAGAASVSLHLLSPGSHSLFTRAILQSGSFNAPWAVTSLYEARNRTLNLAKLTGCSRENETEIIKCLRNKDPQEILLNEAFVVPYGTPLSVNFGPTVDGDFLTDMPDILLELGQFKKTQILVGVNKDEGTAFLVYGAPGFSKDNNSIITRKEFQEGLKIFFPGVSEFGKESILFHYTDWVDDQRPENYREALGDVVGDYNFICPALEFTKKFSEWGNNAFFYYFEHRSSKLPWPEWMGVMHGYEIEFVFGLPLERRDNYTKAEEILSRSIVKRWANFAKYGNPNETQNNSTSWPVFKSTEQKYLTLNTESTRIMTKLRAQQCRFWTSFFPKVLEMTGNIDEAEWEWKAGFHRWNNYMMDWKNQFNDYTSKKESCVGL

SMILES	inhibition
CCOC(=O)c1ccc2nc(-c3ccc(Cl)cc3)c3c(c2c1)N(Cc1ccccc1)C(=O)CC3	8.41%
CCNC(=O)c1ccc2nc(-c3ccc(Cl)cc3)c3c(c2c1)N(Cc1ccccc1)CCC3	25.3%
CCOC(=O)c1ccc2nc(-c3ccc(Cl)cc3)c3c(c2c1)N(Cc1ccccc1)CCC3	8.68%
CCOC(=O)c1ccc2nc(-c3ccc(Cl)cc3)c3c(c2c1)NCCC3	20.3%
CCOC(=O)c1ccc2nc(-c3cccnc3)c3c(c2c1)NCCC3	27.5%

Target: T1, Acetylcholinesterase
Assay: Mixed-type inhibition of human recombinant AChE using acetylthiocholine iodide as substrate by Cornish-Bowden plot analysis
Details: not given

SMILES	inhibition
CCNC(=O)c1ccc2nc(-c3ccc(Cl)cc3)c3c(c2c1)N(Cc1ccccc1)CCC3	Active
CCNC(=O)c1ccc2nc(-c3ccc(Cl)cc3)c3c(c2c1)NCCC3	Active

Target: T1, Acetylcholinesterase
Assay: Mixed-type inhibition of human recombinant AChE using acetylthiocholine iodide as substrate assessed as enzyme-substrate-inhibitor complex by Lineweaver-Burk plot analysis
Details: not given

SMILES	Ki
CCNC(=O)c1ccc2nc(-c3ccc(Cl)cc3)c3c(c2c1)N(Cc1ccccc1)CCC3	2340 nM
CCNC(=O)c1ccc2nc(-c3ccc(Cl)cc3)c3c(c2c1)NCCC3	73 nM

Test system: not listed separately
Assay: in vitro
Details: PAMPA
Description: Permeability of the compound by BBB-PAMPA

SMILES	Papp
CCOC(=O)c1ccc2nc(-c3ccc(Cl)cc3)c3c(c2c1)N(Cc1ccccc1)C(=O)CC3	13.3 ×10⁻⁶ cm/s
CCNCc1ccc2nc(-c3cccnc3)c3c(c2c1)NCCC3	2.4 ×10⁻⁶ cm/s
CCNCc1ccc2nc(-c3ccc(Cl)cc3)c3c(c2c1)NCCC3	5.6 ×10⁻⁶ cm/s
CCNC(=O)c1ccc2nc(-c3ccc(Cl)cc3)c3c(c2c1)N(Cc1ccccc1)CCC3	7.7 ×10⁻⁶ cm/s
CCOC(=O)c1ccc2nc(-c3ccc(Cl)cc3)c3c(c2c1)N(Cc1ccccc1)CCC3	8.1 ×10⁻⁶ cm/s
CCOC(=O)c1ccc2nc(-c3ccc(Cl)cc3)c3c(c2c1)NCCC3	9.7 ×10⁻⁶ cm/s
CCOC(=O)c1ccc2nc(-c3cccnc3)c3c(c2c1)NCCC3	14.6 ×10⁻⁶ cm/s
CCNC(=O)c1ccc2nc(-c3ccc(Cl)cc3)c3c(c2c1)NCCC3	22.9 ×10⁻⁶ cm/s

Target: T1, Acetylcholinesterase
Assay: Inhibition of human recombinant AChE using acetylthiocholine iodide as substrate at 25 uM preincubated for 20 mins followed by substrate addition by Ellman's method relative to control
Details: not given

SMILES	inhibition
CCOC(=O)c1ccc2nc(-c3ccc(Cl)cc3)c3c(c2c1)N(Cc1ccccc1)CCC3	10%
CCOC(=O)c1ccc2nc(-c3ccc(Cl)cc3)c3c(c2c1)NCCC3	17.8%

Target: T1, Acetylcholinesterase
Assay: Ratio of propidium IC50 to compound IC50 for human recombinant AChE
Details: not given

SMILES	Ratio IC50
CCNC(=O)c1ccc2nc(-c3ccc(Cl)cc3)c3c(c2c1)NCCC3	500

Target: T3, Cholinesterase
Assay: Inhibition of human serum BChE using butyrylthiocholine iodide as substrate preincubated for 20 mins followed by substrate addition measured after 5 mins by Ellman's method
Details: not given

SMILES	IC50
CCNCc1ccc2nc(-c3cccnc3)c3c(c2c1)NCCC3	2590 nM
CCNCc1ccc2nc(-c3ccc(Cl)cc3)c3c(c2c1)NCCC3	1370 nM
CCNC(=O)c1ccc2nc(-c3ccc(Cl)cc3)c3c(c2c1)NCCC3	920 nM

Target: T1, Acetylcholinesterase
Assay: Ratio of tacrine IC50 to compound IC50 for human recombinant AChE
Details: not given

SMILES	Ratio IC50
CCNC(=O)c1ccc2nc(-c3ccc(Cl)cc3)c3c(c2c1)NCCC3	6

Target: T1, Acetylcholinesterase
Assay: Inhibition of human recombinant AChE using acetylthiocholine iodide as substrate preincubated for 20 mins followed by substrate addition by Ellman's method
Details: not given

SMILES	IC50
CCOC(=O)c1ccc2nc(-c3ccc(Cl)cc3)c3c(c2c1)N(Cc1ccccc1)C(=O)CC3	4.15 µM
CCNCc1ccc2nc(-c3cccnc3)c3c(c2c1)NCCC3	15.8 µM
CCNCc1ccc2nc(-c3ccc(Cl)cc3)c3c(c2c1)NCCC3	0.556 µM
CCNC(=O)c1ccc2nc(-c3ccc(Cl)cc3)c3c(c2c1)N(Cc1ccccc1)CCC3	0.801 µM
CCOC(=O)c1ccc2nc(-c3ccc(Cl)cc3)c3c(c2c1)N(Cc1ccccc1)CCC3	> 25 µM
CCOC(=O)c1ccc2nc(-c3ccc(Cl)cc3)c3c(c2c1)NCCC3	> 25 µM
CCOC(=O)c1ccc2nc(-c3cccnc3)c3c(c2c1)NCCC3	22.8 µM
CCNC(=O)c1ccc2nc(-c3ccc(Cl)cc3)c3c(c2c1)NCCC3	0.065 µM
